According to paper PMC10528299, “Targeting FAK/PYK2 with SJP1602 for Anti-Tumor Activity in Triple-Negative Breast Cancer” (Current Issues in Molecular Biology, 2023):
pIC50: −log10 of the molar value.

What was measured:
MDA-MB-231 = assay: 3D spheroid assay MDA-MB-231; type: cell-based; details: Homo sapiens, 96 h; MDA-MB-231, 2% Matrigel, 4 days treatment; read-out: IC50 3D spheroid cell viability
Procedure: Breast cancer cell lines were cultured in medium with or without 2% Matrigel (Corning, NY, USA) for 3 days in each 96-well ultra-low attachment round plate to form a single spheroid at a density of 3 × 10^3 cells/well. SJP1602 was dissolved in DMSO and treated for 4 days at concentrations ranging from 200 nM to 20 μM. Cell viability was quantified according to the manufacturer’s instructions using a CellTiter-Glo 3D cell viability assay (Promega, Madison, WI, USA). Luminescence was measured using the Tecan Spark 10M.

ALK(h) = target: T1, ALK(h) (Homo sapiens, UniProt Q9UM73); assay: Eurofins kinase profiling; type: biochemical; details: for remaining activity at 1 µM: read-out: residual kinase activity ALK(h)
T1 construct: purchased Eurofins KinaseProfiler
T1 sequence (Q9UM73 19-1620): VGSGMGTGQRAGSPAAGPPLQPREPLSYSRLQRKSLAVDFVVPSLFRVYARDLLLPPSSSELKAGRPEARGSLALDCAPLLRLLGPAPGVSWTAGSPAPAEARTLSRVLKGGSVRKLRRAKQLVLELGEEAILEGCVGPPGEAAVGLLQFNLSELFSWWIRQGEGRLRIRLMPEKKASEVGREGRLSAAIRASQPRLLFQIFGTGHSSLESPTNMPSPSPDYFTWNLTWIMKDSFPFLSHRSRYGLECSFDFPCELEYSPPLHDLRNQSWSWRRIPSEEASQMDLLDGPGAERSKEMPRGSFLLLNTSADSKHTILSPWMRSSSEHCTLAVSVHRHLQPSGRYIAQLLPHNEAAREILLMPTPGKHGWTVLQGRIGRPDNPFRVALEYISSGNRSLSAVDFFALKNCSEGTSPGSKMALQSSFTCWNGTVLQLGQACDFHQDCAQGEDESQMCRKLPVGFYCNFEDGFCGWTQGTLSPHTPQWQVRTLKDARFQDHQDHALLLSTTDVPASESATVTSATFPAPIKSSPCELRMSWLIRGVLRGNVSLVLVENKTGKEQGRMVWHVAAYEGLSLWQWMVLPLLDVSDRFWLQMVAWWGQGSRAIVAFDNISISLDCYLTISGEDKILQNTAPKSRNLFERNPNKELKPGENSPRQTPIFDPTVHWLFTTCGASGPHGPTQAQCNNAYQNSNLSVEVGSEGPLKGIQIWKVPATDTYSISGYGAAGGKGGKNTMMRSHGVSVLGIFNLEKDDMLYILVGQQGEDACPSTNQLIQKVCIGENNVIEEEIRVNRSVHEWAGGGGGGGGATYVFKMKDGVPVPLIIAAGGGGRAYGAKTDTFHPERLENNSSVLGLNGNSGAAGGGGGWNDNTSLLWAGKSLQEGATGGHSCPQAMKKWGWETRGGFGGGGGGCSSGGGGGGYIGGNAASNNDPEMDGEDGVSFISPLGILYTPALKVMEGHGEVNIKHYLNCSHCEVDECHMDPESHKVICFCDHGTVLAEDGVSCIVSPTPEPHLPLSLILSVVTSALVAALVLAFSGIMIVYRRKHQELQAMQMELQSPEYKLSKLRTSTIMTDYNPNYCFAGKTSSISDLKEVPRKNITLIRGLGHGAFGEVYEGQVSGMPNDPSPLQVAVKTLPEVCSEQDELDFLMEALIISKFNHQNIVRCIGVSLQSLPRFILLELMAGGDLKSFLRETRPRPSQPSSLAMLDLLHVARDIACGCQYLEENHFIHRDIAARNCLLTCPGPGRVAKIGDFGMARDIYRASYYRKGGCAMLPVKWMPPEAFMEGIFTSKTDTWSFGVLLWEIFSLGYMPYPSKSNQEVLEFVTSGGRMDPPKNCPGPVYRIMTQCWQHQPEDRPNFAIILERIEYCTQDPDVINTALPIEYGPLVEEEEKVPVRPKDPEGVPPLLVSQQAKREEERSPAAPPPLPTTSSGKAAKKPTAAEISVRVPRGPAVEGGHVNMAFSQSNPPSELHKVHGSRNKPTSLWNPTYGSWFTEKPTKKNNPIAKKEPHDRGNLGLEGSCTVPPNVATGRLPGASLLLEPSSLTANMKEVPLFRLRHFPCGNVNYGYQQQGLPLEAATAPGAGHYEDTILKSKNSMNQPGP
Procedure: (§1) The kinase profiling analysis was performed at Eurofins (Poitiers, France). A total of 110 kinase assays were carried out according to Eurofins’ standard protocols. For protein kinase assays, the kinase activity was measured using Eurofins’ KinaseProfiler radiometric assay. In this assay, a panel of kinases was incubated with the test compound SJP1602 at a concentration of 1 µM, and the kinase activity was determined using radiolabeled phosphate as a substrate. Lipid and atypical kinase assays were conducted using Eurofins’ homogeneous time-resolved fluorescence assay. The same panel of kinases was incubated with SJP1602 at a concentration of 1 µM, and the activity of lipid and atypical kinases was measured using this assay.

ARK5(h) = target: T2, ARK5(h) (Homo sapiens, UniProt O60285); assay: Eurofins kinase profiling; type: biochemical; details: read-out: residual kinase activity ARK5(h)
T2 construct: purchased Eurofins KinaseProfiler
T2 sequence (O60285 1-661): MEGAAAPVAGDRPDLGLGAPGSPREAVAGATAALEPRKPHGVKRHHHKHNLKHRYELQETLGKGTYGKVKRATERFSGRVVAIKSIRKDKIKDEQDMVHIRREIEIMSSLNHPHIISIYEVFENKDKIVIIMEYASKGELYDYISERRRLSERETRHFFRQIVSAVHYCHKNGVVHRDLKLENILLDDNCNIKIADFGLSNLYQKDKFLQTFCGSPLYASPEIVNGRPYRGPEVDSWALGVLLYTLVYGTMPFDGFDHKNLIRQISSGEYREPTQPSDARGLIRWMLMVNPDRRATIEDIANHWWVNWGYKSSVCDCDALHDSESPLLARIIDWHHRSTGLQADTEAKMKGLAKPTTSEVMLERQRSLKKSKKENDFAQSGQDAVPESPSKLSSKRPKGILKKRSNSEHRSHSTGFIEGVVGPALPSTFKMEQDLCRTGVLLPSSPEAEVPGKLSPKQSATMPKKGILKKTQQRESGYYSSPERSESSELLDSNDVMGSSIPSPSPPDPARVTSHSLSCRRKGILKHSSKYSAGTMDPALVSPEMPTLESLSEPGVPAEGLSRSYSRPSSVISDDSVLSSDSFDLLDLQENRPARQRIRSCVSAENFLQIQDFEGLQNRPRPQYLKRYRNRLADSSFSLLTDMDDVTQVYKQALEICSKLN
Procedure: as §1

CDK2/cyclinA(h) = target: T3, CDK2/cyclinA(h) (Homo sapiens, UniProt P24941); assay: Eurofins kinase profiling; type: biochemical; details: read-out: residual kinase activity CDK2/cyclinA(h)
T3 construct: purchased Eurofins KinaseProfiler
Procedure: as §1

CHK2(h) = target: T4, CHK2(h) (Homo sapiens, UniProt O96017); assay: Eurofins kinase profiling; type: biochemical; details: read-out: residual kinase activity CHK2(h)
T4 construct: purchased Eurofins KinaseProfiler
T4 sequence (O96017 whole entry): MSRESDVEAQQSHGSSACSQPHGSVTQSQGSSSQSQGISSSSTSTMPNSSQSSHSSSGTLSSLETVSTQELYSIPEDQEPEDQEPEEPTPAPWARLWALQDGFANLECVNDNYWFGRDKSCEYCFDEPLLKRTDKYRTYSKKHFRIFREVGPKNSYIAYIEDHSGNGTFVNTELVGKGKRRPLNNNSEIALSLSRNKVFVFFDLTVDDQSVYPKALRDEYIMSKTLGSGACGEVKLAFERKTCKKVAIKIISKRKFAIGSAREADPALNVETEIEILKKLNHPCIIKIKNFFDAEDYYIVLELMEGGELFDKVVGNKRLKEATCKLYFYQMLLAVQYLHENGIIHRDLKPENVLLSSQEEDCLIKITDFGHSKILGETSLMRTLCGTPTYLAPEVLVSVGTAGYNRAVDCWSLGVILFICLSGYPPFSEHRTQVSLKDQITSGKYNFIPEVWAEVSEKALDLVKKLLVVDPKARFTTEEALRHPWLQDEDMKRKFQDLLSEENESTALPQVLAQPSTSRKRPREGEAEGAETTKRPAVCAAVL
Procedure: as §1

CSK(h) = target: T5, CSK(h) (Homo sapiens, UniProt P41240); assay: Eurofins kinase profiling; type: biochemical; details: read-out: residual kinase activity CSK(h)
T5 construct: purchased Eurofins KinaseProfiler
T5 sequence (P41240 whole entry): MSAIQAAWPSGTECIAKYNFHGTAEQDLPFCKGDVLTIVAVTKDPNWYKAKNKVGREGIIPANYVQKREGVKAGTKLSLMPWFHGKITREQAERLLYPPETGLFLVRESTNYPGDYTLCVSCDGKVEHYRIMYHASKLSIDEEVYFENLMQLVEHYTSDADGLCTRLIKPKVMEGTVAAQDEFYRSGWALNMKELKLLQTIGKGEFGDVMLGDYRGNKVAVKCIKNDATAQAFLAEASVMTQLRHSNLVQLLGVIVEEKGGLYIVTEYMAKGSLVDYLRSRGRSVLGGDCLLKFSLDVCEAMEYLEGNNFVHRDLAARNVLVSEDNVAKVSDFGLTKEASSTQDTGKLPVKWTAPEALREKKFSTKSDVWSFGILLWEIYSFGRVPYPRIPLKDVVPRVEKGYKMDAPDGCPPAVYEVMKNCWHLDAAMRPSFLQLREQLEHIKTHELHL
Procedure: as §1

EGFR(T790M)(h) = target: T6, EGFR(T790M)(h) (Homo sapiens, UniProt P00533, T790M); assay: Eurofins kinase profiling; type: biochemical; details: read-out: residual kinase activity EGFR(T790M)(h)
T6 construct: purchased Eurofins KinaseProfiler
Procedure: as §1

EphA7(h) = target: T7, EphA7(h) (Homo sapiens, UniProt Q15375); assay: Eurofins kinase profiling; type: biochemical; details: read-out: residual kinase activity EphA7(h)
T7 construct: purchased Eurofins KinaseProfiler
T7 sequence (Q15375 28-998): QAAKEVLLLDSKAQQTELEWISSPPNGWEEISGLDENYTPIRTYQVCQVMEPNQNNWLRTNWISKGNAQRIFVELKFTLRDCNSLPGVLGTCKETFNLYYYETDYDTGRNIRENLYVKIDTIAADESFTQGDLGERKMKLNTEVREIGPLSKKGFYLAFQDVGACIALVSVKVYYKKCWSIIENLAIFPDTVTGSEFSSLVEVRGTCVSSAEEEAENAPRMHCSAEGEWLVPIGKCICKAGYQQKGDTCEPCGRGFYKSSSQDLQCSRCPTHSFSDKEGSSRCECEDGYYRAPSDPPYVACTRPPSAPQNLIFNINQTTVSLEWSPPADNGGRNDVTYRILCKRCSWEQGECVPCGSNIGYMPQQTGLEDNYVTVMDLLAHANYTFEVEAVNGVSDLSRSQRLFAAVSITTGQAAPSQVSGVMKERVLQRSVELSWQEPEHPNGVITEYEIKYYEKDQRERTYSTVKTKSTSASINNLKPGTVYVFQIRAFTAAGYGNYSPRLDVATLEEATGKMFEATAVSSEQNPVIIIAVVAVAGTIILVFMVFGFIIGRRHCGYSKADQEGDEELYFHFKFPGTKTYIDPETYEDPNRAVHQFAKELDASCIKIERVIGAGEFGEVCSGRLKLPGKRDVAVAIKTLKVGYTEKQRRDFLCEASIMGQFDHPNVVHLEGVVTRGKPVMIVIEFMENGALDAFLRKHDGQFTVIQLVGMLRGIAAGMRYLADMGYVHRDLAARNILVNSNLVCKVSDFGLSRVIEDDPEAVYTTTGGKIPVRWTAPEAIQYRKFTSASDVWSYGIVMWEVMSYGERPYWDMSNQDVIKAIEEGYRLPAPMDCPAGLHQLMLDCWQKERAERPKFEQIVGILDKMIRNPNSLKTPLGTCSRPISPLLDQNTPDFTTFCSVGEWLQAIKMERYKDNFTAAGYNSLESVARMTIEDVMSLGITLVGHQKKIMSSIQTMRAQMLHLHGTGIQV
Procedure: as §1

IKKα(h) = target: T8, IKKα(h) (Homo sapiens, UniProt O15111); assay: Eurofins kinase profiling; type: biochemical; details: read-out: residual kinase activity IKKα(h)
T8 construct: purchased Eurofins KinaseProfiler
T8 sequence (O15111 1-745): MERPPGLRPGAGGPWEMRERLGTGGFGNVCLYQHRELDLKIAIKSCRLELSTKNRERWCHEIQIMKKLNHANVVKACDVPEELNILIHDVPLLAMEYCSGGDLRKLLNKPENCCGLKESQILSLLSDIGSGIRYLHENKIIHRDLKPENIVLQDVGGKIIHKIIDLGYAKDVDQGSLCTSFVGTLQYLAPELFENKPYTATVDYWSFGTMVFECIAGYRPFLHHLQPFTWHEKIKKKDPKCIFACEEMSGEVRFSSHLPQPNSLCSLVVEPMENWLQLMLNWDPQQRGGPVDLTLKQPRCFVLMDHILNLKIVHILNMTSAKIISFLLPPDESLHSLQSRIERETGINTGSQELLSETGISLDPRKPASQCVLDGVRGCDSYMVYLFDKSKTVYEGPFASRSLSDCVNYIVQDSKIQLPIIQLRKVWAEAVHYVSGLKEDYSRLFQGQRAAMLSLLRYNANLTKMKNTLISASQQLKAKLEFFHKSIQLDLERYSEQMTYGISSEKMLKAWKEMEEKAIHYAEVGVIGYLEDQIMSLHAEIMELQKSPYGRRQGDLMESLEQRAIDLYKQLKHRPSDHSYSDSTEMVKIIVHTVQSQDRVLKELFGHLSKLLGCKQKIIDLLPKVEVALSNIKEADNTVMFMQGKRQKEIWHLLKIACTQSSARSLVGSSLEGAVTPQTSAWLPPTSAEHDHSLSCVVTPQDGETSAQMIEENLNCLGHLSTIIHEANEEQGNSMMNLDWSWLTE
Procedure: as §1

PKCθ(h) = target: T9, PKCθ(h) (Homo sapiens, UniProt Q04759); assay: Eurofins kinase profiling; type: biochemical; details: read-out: residual kinase activity PKCθ(h)
T9 construct: purchased Eurofins KinaseProfiler
Procedure: as §1

Snk(h) = target: T10, Snk(h) (Homo sapiens, UniProt Q9NYY3); assay: Eurofins kinase profiling; type: biochemical; details: read-out: residual kinase activity Snk(h)
T10 construct: purchased Eurofins KinaseProfiler
T10 sequence (Q9NYY3 whole entry): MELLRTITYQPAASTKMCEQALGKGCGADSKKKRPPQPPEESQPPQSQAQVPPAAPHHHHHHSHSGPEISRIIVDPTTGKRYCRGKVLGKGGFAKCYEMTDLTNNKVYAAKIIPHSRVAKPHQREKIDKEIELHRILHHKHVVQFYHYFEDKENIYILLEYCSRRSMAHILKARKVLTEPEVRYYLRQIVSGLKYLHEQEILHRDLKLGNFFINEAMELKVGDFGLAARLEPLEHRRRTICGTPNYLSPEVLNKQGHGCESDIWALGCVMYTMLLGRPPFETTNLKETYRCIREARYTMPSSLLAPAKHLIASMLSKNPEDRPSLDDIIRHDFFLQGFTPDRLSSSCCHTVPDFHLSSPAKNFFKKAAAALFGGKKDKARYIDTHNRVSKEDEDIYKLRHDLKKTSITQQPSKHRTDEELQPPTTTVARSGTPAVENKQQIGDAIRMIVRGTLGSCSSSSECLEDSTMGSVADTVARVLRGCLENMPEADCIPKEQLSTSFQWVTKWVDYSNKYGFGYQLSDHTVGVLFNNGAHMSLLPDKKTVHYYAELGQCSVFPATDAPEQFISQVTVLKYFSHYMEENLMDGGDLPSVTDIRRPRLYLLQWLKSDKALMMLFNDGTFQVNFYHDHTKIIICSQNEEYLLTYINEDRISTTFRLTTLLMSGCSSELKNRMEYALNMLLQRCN
Procedure: as §1

cKit(V560G)(h) = target: T11, cKit(V560G)(h) (Homo sapiens, UniProt P10721, V560G); assay: Eurofins kinase profiling; type: biochemical; details: read-out: residual kinase activity cKit(V560G)(h)
T11 construct: purchased Eurofins KinaseProfiler
Procedure: as §1

p70S6K(h) = target: T12, p70S6K(h) (Homo sapiens, UniProt P23443); assay: Eurofins kinase profiling; type: biochemical; details: read-out: residual kinase activity p70S6K(h)
T12 construct: purchased Eurofins KinaseProfiler
T12 sequence (P23443 whole entry): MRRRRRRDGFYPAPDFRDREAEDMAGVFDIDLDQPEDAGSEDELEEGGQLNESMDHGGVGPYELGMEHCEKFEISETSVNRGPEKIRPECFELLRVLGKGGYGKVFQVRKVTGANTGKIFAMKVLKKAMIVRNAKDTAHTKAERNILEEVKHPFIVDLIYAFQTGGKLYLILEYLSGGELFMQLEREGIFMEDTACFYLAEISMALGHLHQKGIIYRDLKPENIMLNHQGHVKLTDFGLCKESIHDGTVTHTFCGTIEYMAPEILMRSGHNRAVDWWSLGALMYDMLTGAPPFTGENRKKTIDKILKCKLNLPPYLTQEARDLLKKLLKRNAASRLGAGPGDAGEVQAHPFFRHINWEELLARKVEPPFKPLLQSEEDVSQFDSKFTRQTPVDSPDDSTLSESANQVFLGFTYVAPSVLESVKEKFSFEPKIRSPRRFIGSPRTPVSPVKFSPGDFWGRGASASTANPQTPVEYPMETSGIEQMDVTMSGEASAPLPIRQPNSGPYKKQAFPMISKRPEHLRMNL
Procedure: as §1

SMILES | pIC50 (MDA-MB-231) | remaining activity at 1 µM (ALK(h)) [%] | remaining activity at 1 µM (ARK5(h)) [%] | remaining activity at 1 µM (CDK2/cyclinA(h)) [%] | remaining activity at 1 µM (CHK2(h)) [%] | remaining activity at 1 µM (CSK(h)) [%] | remaining activity at 1 µM (EGFR(T790M)(h)) [%] | remaining activity at 1 µM (EphA7(h)) [%] | remaining activity at 1 µM (IKKα(h)) [%] | remaining activity at 1 µM (PKCθ(h)) [%] | remaining activity at 1 µM (Snk(h)) [%] | remaining activity at 1 µM (cKit(V560G)(h)) [%] | remaining activity at 1 µM (p70S6K(h)) [%] | inhibition at 1 µM (ALK(h)) [%]
CONC(=O)c1ccccc1Nc1cc(Nc2cc(C)nn2C(C)C)ncc1Cl [GSK2256098] | 5.95 | 73 | 92 | 94 | 59 | 92 | 106 | 99 | 93 | 96 | 113 | 104 | 69 | –
CNC(=O)c1ccc(Nc2ncc(C(F)(F)F)c(NCc3nccnc3N(C)S(C)(=O)=O)n2)cc1 [VS-6063, Defactinib] | 6.37 | 96 | 21 | 28 | 71 | 88 | 82 | 41 | 125 | 63 | 64 | 74 | 98 | –
CNC(=O)c1cccc(C)c1Nc1nc(Nc2ccc(N3CCN(C4C5CC6CC4CC(O)(C6)C5)CC3)cc2OC)ncc1C(F)(F)F (stereo not shown) [SJP1602, 2-((2-((4-(4-((2s,5r)-5-hydroxyadamantan-2-yl)piperazin-1-yl)-2-methoxyphenyl)amino)-5-(trifluoromethyl)pyrimidin-4-yl)amino)-N,3-dimethylbenzamide] | 6.13 | 28 | 90 | 85 | 51 | 83 | 119 | 103 | 130 | 93 | 105 | 136 | 124 | 72
